# Data reported in PubChem BioAssay AID2060890 (Molecular Pharmacology Branch, DTP, NCI, 2025).
# Tested on: LG0703-F948-PDC complex spheroid viability
# Experiment: Anticancer human tumor LG0703-F948-PDC patient-derived lung adenocarcinoma cell line growth inhibition [RAS]
# Details: for IC50: curve of first compound; for viability, T/C: stronger effect = lower value
# Outline: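 Tumour cells grown as complex spheroids with HUVEC endothelial cells and mesenchymal stem cells, treated with RAS pathway inhibitor combinations. Each agent spans half-log steps from near clinical Cmax, or 10 microM where Cmax is unknown.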
# [1] = second compound 0.00316 µM, first compound 0.0316 µM
# [2] = second compound 0.00316 µM, first compound 0.1 µM
# [3] = second compound 0.00316 µM, first compound 0.316 µM
# [4] = second compound 0.00316 µM, first compound 1 µM
# [5] = second compound 0.01 µM, first compound 0.0316 µM
# [6] = second compound 0.01 µM, first compound 0.1 µM
# [7] = second compound 0.01 µM, first compound 0.316 µM
# [8] = second compound 0.01 µM, first compound 1 µM
# [9] = second compound 0.0316 µM, first compound 0.0316 µM
# [10] = second compound 0.0316 µM, first compound 0.1 µM
# [11] = second compound 0.0316 µM, first compound 0.316 µM
# [12] = second compound 0.0316 µM, first compound 1 µM
# [13] = second compound 0.1 µM, first compound 0.0316 µM
# [14] = second compound 0.1 µM, first compound 0.1 µM
# [15] = second compound 0.1 µM, first compound 0.316 µM
# [16] = second compound 0.1 µM, first compound 1 µM
# [17] = second compound 0.316 µM, first compound 0.0316 µM
# [18] = second compound 0.316 µM, first compound 0.1 µM
# [19] = second compound 0.316 µM, first compound 0.316 µM
# [20] = second compound 0.316 µM, first compound 1 µM
# [21] = second compound 1 µM, first compound 0.0316 µM
# [22] = second compound 1 µM, first compound 0.1 µM
# [23] = second compound 1 µM, first compound 0.316 µM
# [24] = second compound 1 µM, first compound 1 µM
# 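Also: spheroids exposed to agents for 7 days.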
# 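For viability, T/C in this document: 100% = DMSO vehicle wells.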
structure (smiles),measurement,setting,value
CC1(O)CCCC1n1c(=O)c(C(F)F)cc2cnc(NC3CCN(S(C)(=O)=O)CC3)nc21 (centres undefined) + C=CC(=O)N1CCN(c2nc(OCC3CCCN3C)nc3c(F)c(-c4nc(N)cc(C)c4C(F)(F)F)c(Cl)cc23)C(C)C1,IC50,second compound 0.00316 µM,4.29 µM
same,IC50,second compound 0.01 µM,4.16 µM
same,IC50,second compound 0.0316 µM,4.67 µM
same,IC50,second compound 0.1 µM,4.25 µM
same,IC50,second compound 0.316 µM,4.34 µM
same,IC50,second compound 1 µM,4.13 µM
same,"viability, T/C",[1],96.7%
same,"viability, T/C",[2],91.2%
same,"viability, T/C",[3],86.1%
same,"viability, T/C",[4],76.8%
same,"viability, T/C","second compound 0.00316 µM, first compound 3.16 µM",66.9%
same,"viability, T/C","second compound 0.00316 µM, first compound 10 µM",14.1%
same,"viability, T/C",[5],103%
same,"viability, T/C",[6],103%
same,"viability, T/C",[7],90.1%
same,"viability, T/C",[8],72.9%
same,"viability, T/C","second compound 0.01 µM, first compound 3.16 µM",69%
same,"viability, T/C","second compound 0.01 µM, first compound 10 µM",15.8%
same,"viability, T/C",[9],97.8%
same,"viability, T/C",[10],104%
same,"viability, T/C",[11],85.9%
same,"viability, T/C",[12],76.7%
same,"viability, T/C","second compound 0.0316 µM, first compound 3.16 µM",75.5%
same,"viability, T/C","second compound 0.0316 µM, first compound 10 µM",14.7%
same,"viability, T/C",[13],107%
same,"viability, T/C",[14],104%
same,"viability, T/C",[15],88%
same,"viability, T/C",[16],75.2%
same,"viability, T/C","second compound 0.1 µM, first compound 3.16 µM",73.9%
same,"viability, T/C","second compound 0.1 µM, first compound 10 µM",10.9%
same,"viability, T/C",[17],106%
same,"viability, T/C",[18],89.5%
same,"viability, T/C",[19],94.9%
same,"viability, T/C",[20],75.7%
same,"viability, T/C","second compound 0.316 µM, first compound 3.16 µM",72%
same,"viability, T/C","second compound 0.316 µM, first compound 10 µM",9.28%
same,"viability, T/C",[21],115%
same,"viability, T/C",[22],105%
same,"viability, T/C",[23],92.5%
same,"viability, T/C",[24],76.4%
same,"viability, T/C","second compound 1 µM, first compound 3.16 µM",74.9%
same,"viability, T/C","second compound 1 µM, first compound 10 µM",6.44%
CCN1CCN(Cc2ccc(Nc3ncc(F)c(-c4cc(F)c5nc(C)n(C(C)C)c5c4)n3)nc2)CC1 + C=CC(=O)N1CCN(c2nc(OCC3CCCN3C)nc3c(F)c(-c4nc(N)cc(C)c4C(F)(F)F)c(Cl)cc23)C(C)C1,IC50,second compound 0.00316 µM,> 1 µM
same,IC50,second compound 0.01 µM,> 1 µM
same,IC50,second compound 0.0316 µM,> 1 µM
same,IC50,second compound 0.1 µM,> 1 µM
same,IC50,second compound 0.316 µM,> 1 µM
same,IC50,second compound 1 µM,> 1 µM
same,"viability, T/C","second compound 0.00316 µM, first compound 0.00316 µM",106%
same,"viability, T/C","second compound 0.00316 µM, first compound 0.01 µM",92.5%
same,"viability, T/C",[1],85.5%
same,"viability, T/C",[2],74.7%
same,"viability, T/C",[3],85.3%
same,"viability, T/C",[4],66.9%
same,"viability, T/C","second compound 0.01 µM, first compound 0.00316 µM",110%
same,"viability, T/C","second compound 0.01 µM, first compound 0.01 µM",98.8%
same,"viability, T/C",[5],89.8%
same,"viability, T/C",[6],86.5%
same,"viability, T/C",[7],81%
same,"viability, T/C",[8],71%
same,"viability, T/C","second compound 0.0316 µM, first compound 0.00316 µM",108%
same,"viability, T/C","second compound 0.0316 µM, first compound 0.01 µM",109%
same,"viability, T/C",[9],91.1%
same,"viability, T/C",[10],79.7%
same,"viability, T/C",[11],82.7%
same,"viability, T/C",[12],61.7%
same,"viability, T/C","second compound 0.1 µM, first compound 0.00316 µM",106%
same,"viability, T/C","second compound 0.1 µM, first compound 0.01 µM",98.9%
same,"viability, T/C",[13],92.5%
same,"viability, T/C",[14],78%
same,"viability, T/C",[15],84.3%
same,"viability, T/C",[16],68.9%
same,"viability, T/C","second compound 0.316 µM, first compound 0.00316 µM",106%
same,"viability, T/C","second compound 0.316 µM, first compound 0.01 µM",95.6%
same,"viability, T/C",[17],89.6%
same,"viability, T/C",[18],81.5%
same,"viability, T/C",[19],78.7%
same,"viability, T/C",[20],64.3%
same,"viability, T/C","second compound 1 µM, first compound 0.00316 µM",109%
same,"viability, T/C","second compound 1 µM, first compound 0.01 µM",109%
same,"viability, T/C",[21],108%
same,"viability, T/C",[22],81.2%
same,"viability, T/C",[23],87.4%
same,"viability, T/C",[24],65.3%
